Target: P2X3 receptor
Test: Antagonist activity against rat or human P2X3 receptor expressed in HEK293/1321N1 cells assessed as inhibition of alpha,beta-meATP/ATP-induced calcium influx by Fluo-4 dye based FLIPR assay
Type: functional, cell-based

IC50 [nM] | SMILES
90 | N#Cc1cc(Cl)ccc1N1CCc2ncnc(N[C@H](CCO)c3ccc(C(F)(F)F)nc3)c2C1
196 | Cc1ccc(N2CCc3ncnc(NCc4ccccn4)c3C2)c(C#N)c1
236 | Cc1ccc(N2CCc3ncnc(NCc4ccc(C5CC5)cn4)c3C2)c(C#N)c1
59 | COc1ccc(CNc2ncnc3c2CN(c2ccc(Cl)cc2C#N)CC3)cn1
628 | CN(C)c1ccc(CNc2ncnc3c2CN(c2ccc(Cl)cc2C#N)CC3)cn1
41 | N#Cc1cc(Cl)ccc1N1CCc2ncnc(NCc3ccc(Cl)c(-n4cnnc4)c3)c2C1
80 | N#Cc1cc(Br)ccc1N1CCc2ncnc(NCc3ccc(C(F)(F)F)nc3)c2C1
870 | N#Cc1cc(C2CC2)ccc1N1CCc2ncnc(NCc3ccc(C(F)(F)F)nc3)c2C1
41 | Cc1ccc(N2CCc3ncnc(NCc4ncc(Cl)cc4Cl)c3C2)c(C#N)c1
156 | Cc1ccc(N2CCc3ncnc(NCc4ccc5ccccc5n4)c3C2)c(C#N)c1
1380 | COc1ccc([C@@H](CC(=O)O)Nc2ncnc3c2CN(c2ccc(Cl)cc2C#N)CC3)cn1
54 | N#Cc1cc(Cl)ccc1N1CCc2ncnc(N[C@H](CO)c3ccc(C(F)(F)F)nc3)c2C1
512 | Cc1ccc(N2CCc3ncnc(NCc4ccc(C)c(I)c4)c3C2)c(C#N)c1
16 | N#Cc1cc(Cl)ccc1N1CCc2ncnc(N[C@H](CO)c3ccc(C(F)F)nc3)c2C1
63 | N#Cc1ccccc1N1CCc2ncnc(NCc3ccc(C(F)(F)F)nc3)c2C1
> 10000 | COc1ccc([C@H](CC(=O)OC(C)(C)C)Nc2ncnc3c2CN(c2ccc(Cl)cc2C#N)CC3)cn1
23 | Cc1ccc(N2CCc3ncnc(N[C@H](CCO)c4ccc(C(F)(F)F)nc4)c3C2)c(C#N)c1
37 | N#Cc1cc(Cl)ccc1N1CCc2ncnc(NCc3ccc(C(F)(F)F)nc3)c2C1
89 | Cc1ccc(N2CCc3ncnc(NCc4ccc(C)c(F)c4)c3C2)c(C#N)c1
33 | COc1ccc([C@@H](CCO)Nc2ncnc3c2CN(c2ccc(Cl)cc2C#N)CC3)cn1
34 | Cc1ccc(N2CCc3ncnc(NCc4ccc5nccnc5c4)c3C2)c(C#N)c1
187 | Cc1nc(C(F)(F)F)ccc1CNc1ncnc2c1CN(c1ccc(Cl)cc1C#N)CC2
40 | Cc1ccc(CNc2ncnc3c2CN(c2ccc(Cl)cc2C#N)CC3)cc1S(C)(=O)=O
19 | Cc1ccc(N2CCc3ncnc(NCc4ccc(C(F)(F)F)nc4)c3C2)c(C#N)c1
1840 | N#Cc1cc(C(F)(F)F)ccc1N1CCc2ncnc(NCc3ccc(C(F)(F)F)nc3)c2C1
63 | Cc1ccc(N2CCc3ncnc(NCc4ccc(C)c(C#N)c4)c3C2)c(C#N)c1
21 | Cc1ccc(N2CCc3ncnc(NCc4ccc(C)c(-n5cncn5)c4)c3C2)c(C#N)c1
118 | N#Cc1cc(Cl)ccc1N1CCc2ncnc(NCc3ccc(C(F)(F)F)cn3)c2C1

IC50 [nM] | SMILES
15 | Cc1ccc(N2CCc3ncnc(NCc4ccc5ocnc5c4)c3C2)c(C#N)c1
91 | N#Cc1cc(Cl)ccc1N1CCc2ncnc(NCc3ncc(C(F)(F)F)cc3Cl)c2C1
474 | CSc1cc(CNc2ncnc3c2CN(c2ccc(C)cc2C#N)CC3)ccc1C
78 | COc1ccc(CNc2ncnc3c2CN(c2ccc(Br)cc2C#N)CC3)cn1
21 | Cc1ccc(N2CCc3ncnc(N[C@H](CO)c4ccc(C(F)(F)F)nc4)c3C2)c(C#N)c1
183 | Cc1ccc(N2CCc3ncnc(NCc4cccc(C#N)c4)c3C2)c(C#N)c1
38 | CCc1ccc(CNc2ncnc3c2CN(c2ccc(C)cc2C#N)CC3)cn1
284 | N#Cc1cc(Cl)ccc1N1CCc2ncnc(NCc3cccc(-n4cnnc4)c3)c2C1
18 | Cc1ccc(N2CCc3ncnc(NCc4ccn5ccnc5c4)c3C2)c(C#N)c1
20 | Cc1ccc(N2CCc3ncnc(NCc4ccc5cccnc5c4)c3C2)c(C#N)c1
85 | N#Cc1cc(F)ccc1N1CCc2ncnc(NCc3ccc(C(F)(F)F)nc3)c2C1
806 | Cc1ccc(N2CCc3ncnc(N[C@@H](CCO)c4ccc(C(F)(F)F)nc4)c3C2)c(C#N)c1
130 | CC(=O)OCC[C@@H](Nc1ncnc2c1CN(c1ccc(C)cc1C#N)CC2)c1ccc(C(F)(F)F)nc1
96 | Cc1ccc(N2CCc3ncnc(NCc4ccc(C)c(N5CCOCC5)c4)c3C2)c(C#N)c1
122 | N#Cc1cc(Cl)ccc1N1CCc2ncnc(NCc3ccn4ccnc4c3)c2C1
55 | Cc1ccc(N2CCc3ncnc(NC(CCO)c4ccc(C(F)(F)F)nc4)c3C2)c(C#N)c1 (configuration not stated)
23 | COc1ccc([C@@H](CO)Nc2ncnc3c2CN(c2ccc(Cl)cc2C#N)CC3)cn1
423 | Cc1ccc(N2CCc3ncnc(NCc4ccc5cc[nH]c5c4)c3C2)c(C#N)c1
125 | N#Cc1cc(Cl)ccc1N1CCc2ncnc(NCc3ccc4nccnc4c3)c2C1
56 | Cc1ccc(N2CCc3ncnc(NCc4ccc5c(c4)OCO5)c3C2)c(C#N)c1
16 | Cc1ccc(N2CCc3ncnc(NCc4ccc(C)c(S(C)(=O)=O)c4)c3C2)c(C#N)c1
37 | Cc1ccc(N2CCc3ncnc(NCc4ccc(Cl)c(S(C)(=O)=O)c4)c3C2)c(C#N)c1
32 | N#Cc1cc(Cl)ccc1N1CCc2ncnc(N[C@H](CCO)c3ccc(C(F)F)nc3)c2C1
65 | Cc1ccc(N2CCc3ncnc(NCc4cccc(-n5cnnc5)c4)c3C2)c(C#N)c1
13 | Cc1ccc(N2CCc3ncnc(N[C@H](CCO)c4ccc(C(F)F)nc4)c3C2)c(C#N)c1
31 | Cc1ccc(N2CCc3ncnc(NCc4ccc(Cl)c(-n5cnnc5)c4)c3C2)c(C#N)c1
29 | Cc1ccc(N2CCc3ncnc(NCc4ccc(Cl)cn4)c3C2)c(C#N)c1

SMILES | IC50 [nM]
Cc1ccc(N2CCc3ncnc(NCc4ccc(Cl)nc4)c3C2)c(C#N)c1 | 11

Target: T1, P2X2/P2X3 heterotrimeric receptor (Homo sapiens, UniProt P56373+Q9UBL9)
T1 sequence (Q9UBL9 whole entry): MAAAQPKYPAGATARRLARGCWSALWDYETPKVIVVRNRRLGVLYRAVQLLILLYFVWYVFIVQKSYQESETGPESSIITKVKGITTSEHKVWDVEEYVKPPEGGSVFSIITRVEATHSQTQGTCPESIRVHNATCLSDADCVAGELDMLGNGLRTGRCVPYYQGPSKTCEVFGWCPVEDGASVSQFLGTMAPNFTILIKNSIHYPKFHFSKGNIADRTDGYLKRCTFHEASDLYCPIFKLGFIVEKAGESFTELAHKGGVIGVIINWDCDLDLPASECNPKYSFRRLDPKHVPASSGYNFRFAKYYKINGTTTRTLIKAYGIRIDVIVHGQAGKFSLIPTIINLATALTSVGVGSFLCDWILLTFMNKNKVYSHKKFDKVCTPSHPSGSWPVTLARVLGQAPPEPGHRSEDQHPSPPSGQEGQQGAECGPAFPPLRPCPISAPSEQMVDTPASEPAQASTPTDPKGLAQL
T1 sequence (P56373 whole entry): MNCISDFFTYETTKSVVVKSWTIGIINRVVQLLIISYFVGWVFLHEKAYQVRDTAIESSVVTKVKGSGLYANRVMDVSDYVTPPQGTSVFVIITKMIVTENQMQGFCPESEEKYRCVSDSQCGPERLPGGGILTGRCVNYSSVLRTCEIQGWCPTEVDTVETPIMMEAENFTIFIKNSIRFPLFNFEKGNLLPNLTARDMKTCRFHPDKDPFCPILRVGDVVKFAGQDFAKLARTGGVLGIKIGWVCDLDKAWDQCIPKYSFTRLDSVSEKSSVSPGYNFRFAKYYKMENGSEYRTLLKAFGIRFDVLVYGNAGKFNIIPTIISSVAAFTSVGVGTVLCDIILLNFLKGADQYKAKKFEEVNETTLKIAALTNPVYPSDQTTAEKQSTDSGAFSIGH
Test: Antagonist activity against human P2X2/3 receptor expressed in HEK293/1321N1 cells assessed as inhibition of alpha,beta-meATP/ATP-induced calcium influx by Fluo-4 dye based FLIPR assay
Type: functional, cell-based

IC50 [nM] | SMILES
> 10000 | COc1ccc([C@H](CC(=O)OC(C)(C)C)Nc2ncnc3c2CN(c2ccc(Cl)cc2C#N)CC3)cn1

— ChEMBL document CHEMBL3727369, “2-cyanophenyl fused heterocyclic compounds, and compositions and uses thereof” (2013)
